According to PMC4774911, “Biochemical Screening of Five Protein Kinases from Plasmodium falciparum against 14,000 Cell-Active Compounds” (PLoS ONE, 2016):
Like-named read-outs stand apart in the source and are kept apart here.

Key:
[1] = system: HepG2 cells; settings: cited from earlier work
[2] = system: P. falciparum 3D7 cells; settings: 3D7, cited from earlier work
[3] = target: T1, Plasmodium falciparum protein kinase 6 (PK6) (Plasmodium falciparum, UniProt Q8IDW1); experiment: biochemical; settings: hits below 1 uM; read-out: PK6 IC50
T1 construct: 6-Histidine (N); made in house
T1 sequence (Q8IDW1 1-305): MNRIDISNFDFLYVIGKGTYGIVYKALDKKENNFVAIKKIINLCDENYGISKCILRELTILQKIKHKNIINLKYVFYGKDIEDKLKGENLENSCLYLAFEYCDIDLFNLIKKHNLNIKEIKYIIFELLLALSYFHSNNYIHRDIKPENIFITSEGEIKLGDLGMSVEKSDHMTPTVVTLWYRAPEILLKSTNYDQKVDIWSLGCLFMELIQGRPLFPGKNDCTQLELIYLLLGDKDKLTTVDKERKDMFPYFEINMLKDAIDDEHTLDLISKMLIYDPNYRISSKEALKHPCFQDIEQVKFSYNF

[4] = system: DD2; set-up: method as in downloaded from ChEMBL; settings: ref downloaded from ChEMBL; cited from earlier work
[5] = system: 3D7 PFLDH; set-up: method as in downloaded from ChEMBL; settings: ref downloaded from ChEMBL; cited from earlier work
[6] = target: T2, Plasmodium falciparum calcium-dependent protein kinase 1 (CDPK1) (Plasmodium falciparum, UniProt P62344); experiment: CDPK1 Kinase-Glo ATP-consumption screen and dose-response; type: biochemical
T2 construct: 6-Histidine (N); made in house
How it was run: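 Single-point testing used 1 μM final compound, then dose-response, against CDPK4 and CDPK1 with Syntide-2 (40 μM) as substrate. After 90 min, reactions were halted by 5 mM EGTA, and kinase activity was inferred from depleted ATP via Kinase-Glo luminescence.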

[7] = system: DD2; set-up: method as in F.J. Gamo et al., Nature 2010; settings: downloaded from ChEMBL, ref F.J. Gamo et al., Nature 2010; cited from earlier work
[8] = system: 3D7 PFLDH; set-up: method as in F.J. Gamo et al., Nature 2010; concentration or dose not given beside the values; settings: downloaded from ChEMBL, ref F.J. Gamo et al., Nature 2010; cited from earlier work
[9] = target: PKG (Plasmodium falciparum, UniProt Q8I719); experiment: PKG IC50 (supplementary data file); type: biochemical
Description: Supplement pone.0149996.s003.xls, sheet "combined_1_sorted"

[10] = HEPG2, ref downloaded from ChEMBL
[11] = hits below 1 uM, read-out: CDPK1 IC50
[12] = downloaded from ChEMBL, ref F.J. Gamo et al., Nature 2010

T2 sequence (P62344 whole entry): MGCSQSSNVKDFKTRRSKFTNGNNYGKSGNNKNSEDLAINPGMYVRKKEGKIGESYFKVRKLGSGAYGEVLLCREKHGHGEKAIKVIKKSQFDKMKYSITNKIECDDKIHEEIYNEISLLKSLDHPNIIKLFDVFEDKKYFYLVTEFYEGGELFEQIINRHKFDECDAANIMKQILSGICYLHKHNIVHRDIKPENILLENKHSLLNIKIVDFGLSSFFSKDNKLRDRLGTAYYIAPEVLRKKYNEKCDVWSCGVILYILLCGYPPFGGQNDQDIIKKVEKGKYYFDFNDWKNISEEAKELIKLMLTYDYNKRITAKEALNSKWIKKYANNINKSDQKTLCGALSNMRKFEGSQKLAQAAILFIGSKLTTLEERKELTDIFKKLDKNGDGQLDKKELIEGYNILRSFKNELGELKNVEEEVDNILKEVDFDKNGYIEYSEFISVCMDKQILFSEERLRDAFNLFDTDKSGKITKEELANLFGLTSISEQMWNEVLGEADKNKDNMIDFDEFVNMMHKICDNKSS
PKG, sequence (Q8I719 whole entry): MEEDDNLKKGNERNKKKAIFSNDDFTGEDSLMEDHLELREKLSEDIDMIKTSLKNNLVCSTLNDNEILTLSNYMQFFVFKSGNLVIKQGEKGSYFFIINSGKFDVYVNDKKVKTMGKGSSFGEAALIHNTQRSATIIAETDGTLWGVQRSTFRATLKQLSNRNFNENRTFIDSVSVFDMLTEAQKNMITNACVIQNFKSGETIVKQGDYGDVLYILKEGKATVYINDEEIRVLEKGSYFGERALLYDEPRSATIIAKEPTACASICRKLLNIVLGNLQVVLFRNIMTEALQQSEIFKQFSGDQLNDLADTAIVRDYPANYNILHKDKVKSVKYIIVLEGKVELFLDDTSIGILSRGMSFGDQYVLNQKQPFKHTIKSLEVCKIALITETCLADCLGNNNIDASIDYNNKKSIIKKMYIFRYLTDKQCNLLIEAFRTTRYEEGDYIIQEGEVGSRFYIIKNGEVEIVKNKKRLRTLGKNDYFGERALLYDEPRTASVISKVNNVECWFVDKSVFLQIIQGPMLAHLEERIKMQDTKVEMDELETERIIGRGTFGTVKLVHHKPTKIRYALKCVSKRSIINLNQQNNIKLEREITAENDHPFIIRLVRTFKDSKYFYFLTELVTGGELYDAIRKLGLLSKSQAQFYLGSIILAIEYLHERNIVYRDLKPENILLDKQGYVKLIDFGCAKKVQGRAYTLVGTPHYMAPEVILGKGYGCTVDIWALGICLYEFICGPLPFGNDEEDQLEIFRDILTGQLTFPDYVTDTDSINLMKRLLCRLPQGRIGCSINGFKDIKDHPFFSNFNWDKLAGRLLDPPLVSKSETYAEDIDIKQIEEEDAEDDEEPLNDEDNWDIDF

SMILES	PCT_INHIB_HEPG2 [1, 10]	PCT_IHB_3D7 ([2]; ref downloaded from ChEMBL)	pXC50_3D7 ([2]; ref downloaded from ChEMBL)	IC50 [3] [µM]	PCT_INHB_DD2 [4]	PCT_INHIB_3D7_PFLDH [5]	IC50 [6, 11] [µM]	PCT_INHIB_HEPG2 ([1]; HepG2, downloaded from ChEMBL, ref F.J. Gamo et al., Nature 2010) [%]	PCT_IHB_3D7 [2, 12] [%]	pXC50_3D7 [2, 12]	PCT_INHB_DD2 [7] [%]	PCT_INHIB_3D7_PFLDH [8] [%]	IC50 [9] [µM]	IC50 [6] [µM]
COc1c(CN2CCOCC2)cccc1-c1cc2c(-c3ccc(C(=O)O)c(C(C)C)c3)ccnc2[nH]1.O=C(O)C(F)(F)F [TCMDC-135049]	44	98	6.1293	0.695	90	0								
NCCNS(=O)(=O)c1ccc(-c2ccnc3[nH]c(-c4ccncc4)cc23)cc1.O=C(O)C(F)(F)F [TCMDC-133364]	0	96	6.076	0.207	95	3	0.422							
COc1c(CN2CCCC2)cccc1-c1cc2c(-c3ccc(C(=O)O)c(C(C)C)c3)ccnc2[nH]1.O=C(O)C(F)(F)F [TCMDC-135050]	56	99	6.357	0.541	98	0								
NCCNC(=O)c1ccc(-c2cnc3[nH]cc(-c4ccc(C(N)=O)cc4)c3c2)cc1 [TCMDC-132359]	2	99	6.7676	0.931	98	0	0.024							
COCCNCc1cccc(-c2ccc3c(Nc4cc(O)c(Cl)cc4F)ccnc3c2)c1 [TCMDC-138429]	0	100	6.944		79	7	0.436							
COc1cc2nccc(Nc3ccc(Oc4ccccc4)cc3)c2cc1OC.Cl [TCMDC-131917]	13	100	6.165		99	0	0.145							
COCCNCc1ncsc1-c1ccc2c(Nc3cc(O)c(Cl)cc3F)ccnc2c1 [TCMDC-138441]	0	100	6.262		92	0	0.15							
NS(=O)(=O)c1ccc(Nc2nccc(-c3c(-c4cccc(NC(=O)c5c(F)cccc5F)c4)nn4ccccc34)n2)cc1 [TCMDC-135528]	83	93	6.118	0.14	89	0	0.048							
CN1CCN(Cc2ccc(-c3ccc4c(Nc5cc(O)c(Cl)cc5F)ccnc4c3)o2)CC1 [TCMDC-138446]	2	100	6.961		99	0	0.131							
CS(=O)(=O)CCNCc1cccc(-c2ccc3c(Nc4cc(O)c(Cl)cc4F)ccnc3c2)c1 [TCMDC-138435]	9	100	6.595		100	0	0.071							
Cl.NCCCOc1cnc(-c2ccccc2)c2nc(-c3nonc3N)n(CCc3ccccc3)c12 [TCMDC-136216]							0.047	56	93	5.895	86	0	> 10	
COCCNCc1cccc(-c2ccc3c(Nc4ccc(Oc5ccccc5)cc4)ccnc3c2)c1 [TCMDC-138478]	25	100	6.287		99	2	0.979							
Cc1nc(-c2cccc(Nc3ccnc4cc(-c5nccs5)ccc34)c2)no1.Cl [TCMDC-138334]	37	99	6.492		90	0	0.191							
CN(C)CCN(C)Cc1ccc(-c2ccc3c(Nc4ccc(Cl)cc4F)ccnc3c2)o1 [TCMDC-138388]	20	100	6.444		76	1	0.604							
Cn1cc(-c2ccnc3[nH]c(-c4cccc(CNC5CCC(O)CC5)c4)cc23)cn1.O=C(O)C(F)(F)F (stereo not drawn) [TCMDC-133805]	48	95	6.044	0.177	82	2	0.046							
CN(C)CCN(C)Cc1ccc(-c2ccc3c(Nc4ccc(Oc5ccccc5)cc4)ccnc3c2)o1 [TCMDC-138400]	5	100	6.746		100	0	0.718							
COc1ccc(-c2cnc3ccc(NCCCO)nn23)cc1OC [TCMDC-136683]	9	98	6.172		90	0								0.361
Cc1ccc(O)cc1Nc1ccnc2cc(-c3cccc(CNCCS(C)(=O)=O)c3)ccc12 [TCMDC-138472]	9	99	6.078		100	2	0.125							
CN(C)Cc1cccc(-c2cc3c(-c4cnn(C)c4)c(Cl)cnc3[nH]2)c1 [TCMDC-134147]	75	96	6.043	0.128	21	0	0.402							
CN(C)CCNCc1nc(-c2ccc3c(Nc4ccc(Oc5ccccc5)cc4)ccnc3c2)cs1 [TCMDC-138410]	8	100	6.1332		100	6	0.887							
Fc1cc(Cl)ccc1Nc1ccnc2cc(-c3ccc(CNCCN4CCOCC4)o3)ccc12 [TCMDC-138397]	13	100	6.5582		100	0	0.383							
COc1ccc(-c2cnn3ccc(Nc4cc(OC)c(OC)c(OC)c4)nc23)cc1OC [TCMDC-134383]	57	98	6.187		100	0	0.157							
CS(=O)(=O)Nc1cccc(-c2cnc3[nH]cc(-c4cccc(CN)c4)c3c2)c1 [TCMDC-136219]	25	96	5.779		82	0	0.387							
CN(C)Cc1ccc(-c2ccc3c(Nc4ccc(Cl)cc4F)ccnc3c2)o1 [TCMDC-138389]	13	100	6.6173		99	0	0.185							
Oc1cccc(-c2cnc3ccc(NCc4ccc(F)cc4)nn23)c1 [TCMDC-136676]	0	91	5.965		66	2	0.115							
CN(C)CCNCc1cccc(-c2ccc3c(Nc4ccc(Oc5ccccn5)cc4)ccnc3c2)c1 [TCMDC-138493]	27	99	6.633		100	2	0.845							
COc1ccc(Nc2ncc3c(-c4cccc(NC(=O)Cc5cccc(O)c5)c4)c[nH]c3n2)cc1OC [TCMDC-135247]	44	100	6.156		96	0	0.312							
c1ccc(Oc2ccc(Nc3ccnc4cc(-c5ccc(CNCCN6CCOCC6)o5)ccc34)cc2)cc1 [TCMDC-138398]	20	99	6.358		99	0	0.435							
CN1CCN(Cc2cccc(-c3ccc4c(Nc5cc(O)c(Cl)cc5F)ccnc4c3)c2)CC1 [TCMDC-138430]	0	100	6.114		100	4	0.762							
